We go through 13 molecules from patent US20060063209A1, “Engineered antibody fragment that irreversibly binds an antigen” (THE REGENTS OF THE UNIVERSITY OF CALIFORNIA, priority 2004, published 2006).

Where only a bound is given, the exact number is not on record here.

Data set [1] in a line: Whole-body clearance of indium-111 labeled electrophilic benzyl-EDTA derivatives. It counts as in vivo. The conditions noted are these: indium-111 labeled chelate, BALB/c mice; for apparent half-life, whole-body clearance: after tail-vein injection. The protocol: FIG. 4 Whole-body clearance of indium-^111I labeled electrophilic derivatives of benzyl-EDTA from BALB/c mice after tail-vein injection. Here the objective was to find an electrophilic chelate that clears from the animal quickly when not captured by an engineered CHA255.
As reactive ligands, a small set of chelates bearing electrophilic para substituents (FIG. 3) that could react with cysteine were prepared. To be most useful, the electrophilic ligands should be stable in biological media so that they not react prematurely with common biological nucleophiles such as the cysteine on glutathione or in albumin (Geigy Scientific Tables Vol 3, C. Lentner, ed., Ciba-Geigy Ltd., Basel, Switz (1984)). The whole-body clearance of the radiolabeled chelates from mice was studied (FIG. 4 and Chmura, A. J., et al., J. Controlled Release 78:249-258 (2002)) to identify the electrophilic chelates that are unreactive in plasma in vitro, and which also quantitatively clear from live animals.

The subject of the next data set is Fab S95C. Briefly: Covalent attachment of 111In-chelates to engineered Fab S95C (SDS-PAGE). It counts as binding. To be noted: physiological pH and temperature, raw culture medium with 10% fetal calf serum. The protocol:
FIG. 5 Conjugation of electrophilic ^111In-benzyl-EDTA derivatives with engineered Fab S95C. Phosphorimage of 10-20% SDS-PAGE gel of samples of complete culture media incubated with ^111In-labeled (A) CABE, (B) CpABE, (C) AABE, and (D) ABE. The radiolabeled light chains migrate near 25 Kd.
To investigate whether either the S95C or the N96C Fab would bind irreversibly to its target, ^111In-labeled chelates bearing electrophilic groups were incubated at physiological pH and temperature with raw tissue culture medium from the cells expressing these recombinant proteins. The culture medium contained 10% fetal calf serum, representative of typical biological media.
The samples were analyzed by denaturing gel electrophoresis (SDS-PAGE). Separation under reducing and denaturing conditions on SDS-PAGE separates the light chain from the heavy chain of each Fab, functionally destroying the antibody-binding pocket. Chelates bound to the Fab but not covalently linked will dissociate because the antibody-binding pocket is no longer folded. […] However, a chelate that not only bound to a Fab but also covalently linked will be attached to the Fab light chain and migrate with it on SDS-PAGE.

In the next data set the test system is G54C mutant of 2D12.5. The experiment in a line: Permanent binding to G54C, competitive 90Y-AABD attachment, SDS-PAGE. To be noted: 37° C. How it is done:
FIG. 17 a) Scheme describing the permanent binding pair. b) Infinite binding is observed not only for ^90Y-AABD but also for ^111In-AABD, assayed by SDS-PAGE under denaturing conditions where only permanently bound complexes remain attached to the antibody.
FIG. 18 The G54C mutant was preincubated in triplicate with 10 μM AABD complexes of Y^3+, In^3+ or Cu^2+, a negative control N-(1-carbamoyl-2-(4-nitrophenyl)-ethyl)-acrylamide or N-(4-carboxymethylphenyl)-acrylamide, or just buffer, for 5 min, 20 min or 120 min at 37° C., pH 7.5. At the stated times ^90Y-AABD (1 μM) was added to each solution to compete for free G54C. Permanent binding was assayed by measuring band intensities after SDS-PAGE. a) Phosphorimage of gel. The fainter the bands, the greater the permanent binding by the unlabeled ligand. b) Crystal structures of Y-DOTA, In-DOTA-mono(p aminoanilide) (some atoms removed for clarity) and Cu-DOTA.
FIG. 19 a) Metal-AABD (10 μM) complexes were preincubated separately with aliquots of G54C for 5 min, followed by addition of 1 μM ^90Y-AABD, which competes for free G54C, and SDS-PAGE analysis. b) From quantitative phosphorimaging, the highest-affinity AABD complexes form permanent bonds with G54C with higher yields than more 3+weakly binding rare earth-AABD complexes whose ionic radii are slightly smaller (Lu Yb^3+) or larger (Ce^3+, La^3+) than ideal.
We were curious to see if an even weaker binder such as a copper chelate (KD˜10^−4 M for Cu-NBD) would bind irreversibly under ordinary conditions. We tested this by comparing the permanent binding of Y^3+-, In^3+-, and Cu^2+-AABD, using competitive ^90Y-AABD attachment as an indicator (FIG. 18). […] Weaker binding In-AABD blocks >50% of the sites after 5 min preincubation, and even more at later times. Very weakly binding Cu-AABD initially occupies only about 10% of the G54C sites under these conditions, but it has permanently attached to G54C in good yield after 2 hr, blocking>70% of the sites.

In a further data set the test system is antibody 2D12.5. The experiment in a line: Competitive immunoassay (ELISA) of metal chelate binding. More on the design: species or system mouse. The source says:
FIG. 9 Relative binding of metal-(S)NBD complexes to antibody 2D12.5. A representative set of competitive binding curves obtained from ELISA experiments. Distance between midpoints is related to difference between dissociation constants. Error bars (representing the standard error of the mean) are shown but are generally smaller than the data points.
FIG. 14 Binding of yttrium chelates with different stereochemistry to antibody 2D12.5, showing that the antibody binds a chelate with the side chain in the R configuration approximately one order of magnitude less well than the S configuration. […] Error bars are smaller than the data symbols. Data were generated by competitive ELISA.
A competitive immunoassay to measure the binding constants of various metal-(S)NBD complexes relative to the original Y^3+ complex (FIG. 9) was developed to assess the metal selectivity of antibody 2D12.5. Briefly, 2D12.5 was incubated at 37° C. in the presence of immobilized HSA-21T-Y-(S)BAD and a soluble metal-(S)NBD competitor (Y-(S)BAD was linked to human serum albumin via 2-iminothiolane). The metal-(S)NBD concentration was varied from μM to pM in order to determine the relative binding affinity of 2D12.5 for each metal chelate in comparison to Y-(S)NBD. […] Other antibodies that bind metal chelates do so with a strong preference for one or possibly two metals (Love, R. et al., Biochemistry 32, 10950-10959 (1993), and Khosraviani, M., et al., (2000) Bioconjugate Chem., 11, 267-277). For example, the (S)NBD chelate of group IIIB ion Sc(III) binds to the antibody with a much lower affinity (<1%) than the strongest binding rare earth complexes, perhaps because Sc(III) has a much smaller ionic radius (Meehan, P. R., et al., Coord. Chem. Rev., 181, 121145, and Shannon, R. D. (1976) Acta Crystallogr., Sect. A: Found. Crystallogr., A32, 751-767).
In general terms: ELISA stands for enzyme-linked immunosorbent assay.

A further data set deals with avidin (Gallus gallus, UniProt P02701). To be noted: cited from earlier work.
The test system of a further data set is HLA-DR10. Briefly: Gel shift assay of permanent attachment of sL1 mutants (western blot). It counts as binding. To be noted: for cross-linking of linker-activated T97C to HLA-DR10: sL1 mutant T97C activated with electrophile, 19 h incubation, western blot. An excerpt: FIG. 25 Gel shift assay of permanent attachment of sL1 to HLA-DR: western blot stained with anti-HLA-DR10β (antibody HL-40). The glycosylated β subunit of HLA-DR10 runs approximately 28-34 kDa, so the cross-linked sL1-HLA-DR10β should run at 57-63 kDa (bands in lanes 5 and 10). Lanes 2-6 are cysteine mutant F96C and lanes 7-11 are cysteine mutant T97C. Lanes 2 and 7 are sL1 mutant only; lanes 3 and 8 are sL1 mutant and HLA-DR10 target; lanes 4 and 9 are sL1 mutant and electrophile (no target); lanes 5 and 10 are the complete experiment: sL1 mutant, electrophile, and target; and lanes 6 and 11 are sL1 mutant with electrophile and recombinant human serum albumin as a negative control. Lnkr: nitrophenyl ester; Trgt: HLA-DR10.
Irreversible Binding Studies of sL1 and HLA-DR10 The general strategy for the development of an irreversibly binding Lym1 sFv (sL1) is outlined in FIG. 24. Lym-1 scFv (sL1) is genetically altered to incorporate a cysteine residue in various positions of one of the six CDRs. This free sulfhydryl is then activated with an alkylbromoacetate consisting of varied R-groups (see FIG. 34) which modify the reactivity of the covalent bond formation. The activated sL1 is then incubated with a crude mixture containing the target protein. The mixture is loaded on a SDS-PAGE gel and then investigated for the appearance of new, high molecular weight bands corresponding to the conjugation of the target protein and the sL1.
The general experimental protocol for the gel shift assays in the figures is as follows. An aliquot of concentrated P. pastoris expression media containing an sL1 mutant (8-10 μL, positive by anti-V5 stain for sL1 and dialyzed into 10 mM HEPES buffer pH 8.0), is incubated for 15 min with a chosen bromoacetate ester (e.g., nitrophenyl bromoacetate) at a concentration of 10 mM, to alkylate the Cys sidechain. […] Reducing SAB is added to each sample, followed by SDS-PAGE and western blotting.

The next data set relates to HLADR. Briefly: Monovalent binding of Lym-1 single-chain antibody. The source says:
This is a combination of (1) the behavior characteristic of a weak binder, which should permeate a tumor, and (2) the behavior of an extremely strong binder, which should ultimately lock onto its targets throughout the tumor. This combination of good penetration and permanent binding is a unique and revolutionary aspect of this technology.

For orientation: Kd means a measure of binding affinity in units of concentration. A higher Kd goes with weaker binding.

Sequence of avidin (P02701 25-152): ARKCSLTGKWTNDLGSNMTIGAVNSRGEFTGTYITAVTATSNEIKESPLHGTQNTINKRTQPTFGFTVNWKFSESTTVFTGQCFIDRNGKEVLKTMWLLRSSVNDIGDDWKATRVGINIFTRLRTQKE

On to `O=C(O)CN(CC(=O)O)CC(Cc1ccc(NC(=O)CBr)cc1)N(CC(=O)O)CC(=O)O` (centres unmarked) [BABE, bromoacetamidobenzyl-EDTA], for which, in data set [1], the “whole-body clearance” value was “remain in the animals” and the “apparent half-life, whole-body clearance” value is 41 h.
Turning to `O=C(O)CN(CC(=O)O)CC(Cc1ccc(NC(=O)CCl)cc1)N(CC(=O)O)CC(=O)O` (centres unmarked) [CABE, chloroacetamidobenzyl-EDTA], the “covalent attachment to Fab S95C light chain” value in the data set on Fab S95C is “reacted equally well”. Also, in data set [1], the “whole-body clearance” value is reported as “remain in the animals” and the “apparent half-life, whole-body clearance” value was 9 h.
Consider `C=CC(=O)Nc1ccc(C[C@H]2CN(CC(=O)O)CCN(CC(=O)O)CCN(CC(=O)O)CCN2CC(=O)O)cc1` [Cu-AABD, (S)-2-(4-acrylamidobenzyl)-DOTA], for which the “G54C sites initially occupied” value in the data set with G54C mutant of 2D12.5 (10 μM complex, pH 7.5) is recorded as “about 10%”. In the data set with G54C mutant of 2D12.5 (10 μM complex, after 2 hr, pH 7.5), the “G54C sites blocked from 90Y-AABD” value was greater than 70%.
Take `O=C(O)CN1CCN(CC(=O)O)CCN(CC(=O)O)[C@@H](Cc2ccc([N+](=O)[O-])cc2)CN(CC(=O)O)CC1` [Gd-(S)NBD, (S)-2-(4-nitrobenzyl)-DOTA]: the “relative binding to 2D12.5” value in the data set with antibody 2D12.5 (competitive ELISA) is listed as “bind more tightly than the original Y^3+ complex”.
As to `C=CC(=O)Nc1ccc(C[C@H]2CN(CC(=O)O)CCN(CC(=O)O)CCN(CC(=O)O)CCN2CC(=O)O)cc1` [In-AABD, (S)-2-(4-acrylamidobenzyl)-DOTA], the “G54C sites blocked from 90Y-AABD” value in the data set with G54C mutant of 2D12.5 (10 μM complex, preincubation 5 min, pH 7.5) is on record as greater than 50%. The “permanent binding to G54C” value with G54C mutant of 2D12.5 (pH 7.5, SDS-PAGE, listed as 111In-AABD) was “binds permanently”.
On to `O=C(O)CN1CCN(CC(=O)O)CCN(CC(=O)O)[C@@H](Cc2ccc([N+](=O)[O-])cc2)CN(CC(=O)O)CC1` [La-(S)NBD, (S)-2-(4-nitrobenzyl)-DOTA], for which the “ΔΔG relative to the Y-(S)NBD complex” value with antibody 2D12.5 (competitive ELISA) was 0.693 kcal/mol.
Consider `O=C(O)CN1CCN(CC(=O)O)CCN(CC(=O)O)[C@@H](Cc2ccc([N+](=O)[O-])cc2)CN(CC(=O)O)CC1` [Y-(S)NBD, (S)-2-(4-nitrobenzyl)-DOTA], for which the Kd in the data set on antibody 2D12.5 (37° C., competitive immunoassay) is 10 nM.
As for `O=C(O)CN1CCN(CC(=O)O)CCN(CC(=O)O)CCN(CC(=O)O)CC1` [Y-DOTA, 1,4,7,10-tetraazacyclododecane-N,N′,N″,N′″-tetraacetic acid], the “relative binding to 2D12.5” value was “lower than Y-(S)NBD but higher than Y-(R)NBD” in the data set on antibody 2D12.5 (competitive ELISA) and “approximately in the middle” with antibody 2D12.5 (competitive ELISA, listed as Yttrium-DOTA).
With `O=C(O)CCCC[C@@H]1SC[C@@H]2NC(=O)N[C@@H]21` [biotin], the KA at avidin is roughly 4e+09 M⁻¹.
Regarding `O=C(CBr)Oc1ccccc1` [phenylbromoacete], the “cross-linking of linker-activated T97C to HLA-DR10” value with HLA-DR10 is reported as “mild reactivity”.
With “(S)-1-p chloropropionamidobenzyl-EDTA [CpABE]”, the “covalent attachment to Fab S95C light chain” value with Fab S95C was “not”.
As to nitrophenylbromoacetate, the “cross-linking of linker-activated T97C to HLA-DR10” value in the data set with HLA-DR10 is given as “strong cross-linking”.

B1: sL1: Lym-1 single-chain antibody, no cysteine mutation (protein)
scFv: RSQVQLKESGPGLVAPSQSLSITCTISGFSLTSYGVHWVRQPPGKGLEWLVVIWSDGSTTYNSALKSRLSISKDNSKSQVFLKMNSLQTDDTAIYYCASHYGSTLAFASWGHGTLVTVSAGGGGSGGGGSGGGGSDIQMTQSPASLSASVGETVTIICRASVNIYSYLAWYQQKQGKSPQLLVYNAKILAEGVPSRFSGSGSGTQFSLKINSLQPEDFGSYYCQHHYGTFTFGSGTKLEIKSRGPFEGKPIPNPLLGLDSTRTGHHHHHH
For B1, in the data set on HLA-DR10 (sL1 construct treated with nitrophenyl ester, 37° C., 4 hr, western blot with HL-40), the “permanent attachment (cross-linking) to HLA-DR10β” value was “no reactive band appeared”. The “monovalent affinity” value with HLADR is “too weak to measure confidently, but probably in the micromolar range”.
